Data taken from patent US20180280302A1, “SOLID DISPERSIONS OF COMPOUNDS USING POLYVINYL ALCOHOL AS A CARRIER POLYMER” (MERCK PATENT GMBH, priority 2015, published 2018).

What was measured:
[1] = cited from earlier work
[2] = Dissolution of IBU compositions in SGFsp pH 1.2 (USP apparatus II, fiber-optic UV); format: physicochemical; conditions: at 2 hours
Method: All dissolution tests were conducted in a Vankel VK-7000 (Varian, Inc.) USP apparatus II (paddle) dissolution tester. The dissolution medium was maintained at 37° C. with a recirculating heater and a paddle speed of 75 RPM was constant throughout the test. The theoretical equivalent of 200 mg of IBU (1.0 g of KSD product) was added to each vessel containing 1 L of the dissolution medium (n=3). […] The dissolution medium recipe (SGFsp) consisted of 2.0 g NaCl and 80 ml of 0.1 N HCl in a total of 1 L of purified water (pH=1.2). The dissolution medium was degassed prior to testing by the heat/sonication method.
The concentration of IBU in solution during the 120 minute dissolution test (shown in Table 10) was measured once per minute using a Pion Spectra in-situ fiber-optic UV-diss system (Pion, Inc., Billerica, Mass.) with a 1 mm path length probe tip. Concentrations were determined by integrating the area under the UV absorption curve in a wavelength range of 216 to 222 nm with a baseline correction at 450 nm. Linearity was established over a range of 1.4 to 200 μg/ml with a correlation coefficient of 0.9992. A diluents consisting of 7:3 (V/V) SGFsp:Acetonitrile (HPLC grade, no UV absorption beyond 190 nm) was used to generate the IBU standard curve.

final concentration [2]	Compound	pKa [1]
	Cc1ccnc2c1NC(=O)c1cccnc1N2C1CC1 [Nevirapine]	2.8
> 0.02 mg/mL	CC(C)Cc1ccc(C(C)C(=O)O)cc1 (stereo not drawn) [Pure Ibuprofen, Ibuprofen]	
	Acetriptan	4.9
